According to patent publication US20090275567A1, “2-HETEROCYCLOAMINO-4-IMIDAZOLYLPYRIMIDINES AS AGENTS FOR THE INHIBITION OF CELL PROLIFERATION” (priority 2006, published 2009):

Molecular target: T1, CDK2/Cyclin E (Homo sapiens, UniProt P24941)
T1 construct: made in house; host or cells: Sf21 (Spodoptera frugiperda) insect cells, baculovirus co-infection; the GST-Rb substrate was made in E. coli BL21 (DE3) pLysS
Assay: in vitro kinase assay (Scintillation Proximity Assay), CDK2/Cyclin E, GST-Rb substrate
Format: biochemical
Settings: CDK2/Cyclin E partially-purified enzyme, 0.2 μM ATP, read-out: CDK2 inhibitory activity IC50
Procedure: The compounds were tested in an in vitro kinase assay in 96 well format using Scintillation Proximity Assay (SPA—obtained from Amersham) for measuring incorporation of [γ-33-P]-Adenosine Triphosphate into a test substrate (GST-Retinoblastoma protein; GST-Rb). In each well was placed the compound to be tested (diluted in DMSO and water to correct concentrations) and in control wells either roscovitine as an inhibitor control or DMSO as a positive control. […]
The plates were sealed with Topseal-S plate sealers, left for two hrs then spun at 2500 rpm, 1124×g., for 5 mins. The plates were read on a Topcount for 30 seconds per well. […]
E. coli paste was resuspended in 10 ml/g of NETN buffer (50 mM Tris pH 7.5, 120 mM NaCl, 1 mM EDTA, 0.5% v/v NP-40, 1 mM PMSF, 1 ug/ml leupeptin, 1 ug/ml aprotinin and 1 ug/ml pepstatin) and sonicated for 2×45 seconds per 100 ml homogenate. […] The final product was analysed by Sodium Dodeca Sulfate (SDS) PAGE (Polyacrylamide gel) using 8-16% Tris-Glycine gels (Novex, San Diego, USA).
The open reading frames of CDK2 and Cyclin E were isolated by reverse transcriptase-PCR using HeLa cell and activated T cell mRNA as a template and cloned into the insect expression vector pVL1393 (obtained from Invitrogen 1995 catalogue number: V1392-20). […]

IC50: 95 nM
SMILES: CC(=O)N1CCC(Nc2nccc(-c3cnc(C)n3C(C)C)n2)CC1 [Example 29, 1-[4-[[4-(2-Methyl-3-propan-2-yl-imidazol-4-yl)pyrimidin-2-yl]amino]-1-piperidinyl]ethanone]
